The values below come from US6569878B1, “Substituted 4-amino-thiazol-2-yl compounds as cyclin-dependent kinase inhibitors” (Agouron Pharmaceuticals Inc., priority 1997, dated 2003).

Where two headings read alike, the source gives them in different places.

In assay [1] the target is T1, complex of human CDK4 and cyclin D3 (Homo sapiens, UniProt P11802).
T1 construct: made in house; host or cells: insect cells, co-infected with baculovirus
Nature of the assay: Inhibition of CDK4/cyclin D retinoblastoma kinase activity (D-type cyclin is D3). The class given is biochemical. Conditions: superscript a: D-type cyclin is D3; apparent Ki; read-out: Ki CDK 4/D. An outline of the steps: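 Apparent Ki derived by fitting background-corrected activity to competitive (or, for tight binders, competitive tight-binding) equations with measured ATP Km. Rb phosphorylation by radiolabelled ATP was measured at 30°C, 20 min standard or 60 min at 5 nM complex for tight binders, via nitrocellulose capture and phosphorimager.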

The next assay deals with T2, CDK2/cyclin A (Homo sapiens, UniProt P24941).
T2 construct: made in house; host or cells: CDK2: insect cells (baculovirus); cyclin A: E. coli, then limited proteolysis
Nature of the assay: Inhibition of CDK2/cyclin A retinoblastoma kinase activity. Conditions: read-out: Ki CDK 2/A. Type of assay: biochemical. The protocol:
Cyclin-dependent kinase activity was measured by quantifying the enzyme-catalyzed, time-dependent incorporation of radioactive phosphate from [^32P]ATP or [^33P]ATP into a protein substrate. Unless noted otherwise, assays were performed in 96-well plates in a total volume of 50 μL, in the presence of 10 mM HEPES (N-[2-hydroxyethyl]piperazine-N′-[2-ethanesulfonic acid]) (pH 7.4), 10 mM MgCl2, 25 μM adenosine triphosphate (ATP), 1 mg/mL ovalbumin, 5 μg/mL leupeptin, 1 mM dithiothreitol, 10 mM β-glycerophosphate, 0.1 mM sodium vanadate, 1 mM sodium fluoride, 2.5 mM ethylene glycol-bis(β-aminoethyl ether)-N,N,N′N′-tetraacetic acid (EGTA), 2% (v/v) dimethylsulfoxide, and 0.03-0.4 μCi [^32/33P]ATP per reaction. Reactions were initiated with enzyme, incubated at 30° C., and terminated after 20 minutes by the addition of ethylenediaminetetraacetic acid (EDTA) to 250 mM. The phosphorylated substrate was then captured on a nitrocellulose or phosphocellulose membrane using a 96-well filtration manifold, and unincorporated radioactivity was removed by repeated washing with 0.85% phosphoric acid. Radioactivity was quantified by exposing the dried membranes to a phosphorimager.
Apparent Ki values were measured by assaying enzyme activity in the presence of different inhibitor compound concentrations and subtracting the background radioactivity measured in the absence of enzyme. The kinetic parameters (kcat, Km for ATP) were measured for each enzyme under the usual assay conditions by determining the dependence of initial rates on ATP concentration. Inhibition data were fit to an equation for competitive inhibition using Kaleidagraph (Synergy Software), or were fit to an equation for competitive tight-binding inhibition using the software KineTic (BioKin, Ltd.).
CDK2 was purified using published methodology (Rosenblatt et al., “Purification and Crystallization of Human Cyclin-dependent Kinase 2,” J. Mol. Biol., vol. 230, 1993, pp. 1317-1319) from insect cells that had been infected with a baculovirus expression vector. […] Purified, proteolyzed cyclin A was included in the assay at a three- to five-fold molar excess to CDK2. Alternatively, a complex of CDK2 and proteolyzed cyclin A was prepared and purified by gel filtration. The substrate for this assay was the same Rb substrate fragment used for the CDK4 assays, and the methodology of the CDK2/cyclin A and the CDK4/cyclin D3 assays was essentially the same, except that CDK2 was present at 150 nM or 5 nM. Ki values were measured as described above.

A further assay has as its system HCT116. The assay can be described thus: Inhibition of cell growth, MTT assay, HCT116. Type of assay: cell-based, human. Conditions: Homo sapiens, HCT-116. Here is the method:
(§1) The water-insoluble purple formazan product was then detected spectrophotometrically. […] Plates were incubated for four hours before addition of inhibitor compounds. Different concentrations of inhibitor compounds were added in 0.5% (v/v) dimethylsulfoxide (15 μL/well), and cells were incubated at 37° C. (5% CO2) for four to six days (depending on cell type). At the end of the incubation, MTT was added to a final concentration of 0.2 mg/mL, and cells were incubated for 4 hours more at 37° C. After centrifugation of the plates and removal of medium, the absorbance of the formazan (solubilized in dimethylsulfoxide) was measured at 540 nm.
On the technique in general: Formazan colour is commonly taken as a measure of viable cells.

The subject of the next assay is U2-OS. The assay can be described thus: Inhibition of cell growth, MTT assay, U2-OS. The settings on record: for IC50 / IC90: Homo sapiens, U2OS; for % inhibition of growth in parentheses after >25: concentration not given. Type of assay: cell-based. The protocol: as §1
A further assay deals with Saos-2. Nature of the assay: Inhibition of cell growth, MTT assay, Saos-2. The settings on record: Saos-2, MTT assay; for IC50 / IC90: Homo sapiens. Type of assay: cell-based. Here is the method: as §1

T1 sequence (P11802 whole entry): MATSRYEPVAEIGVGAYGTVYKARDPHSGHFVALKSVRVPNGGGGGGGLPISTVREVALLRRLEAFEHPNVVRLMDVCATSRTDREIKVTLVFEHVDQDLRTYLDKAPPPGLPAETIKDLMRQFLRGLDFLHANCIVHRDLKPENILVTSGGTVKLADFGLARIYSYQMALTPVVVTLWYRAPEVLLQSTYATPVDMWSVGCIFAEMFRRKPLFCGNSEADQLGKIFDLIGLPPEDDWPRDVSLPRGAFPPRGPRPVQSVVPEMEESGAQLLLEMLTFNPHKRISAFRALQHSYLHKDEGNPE
T1 sequence (P30281 whole entry partner): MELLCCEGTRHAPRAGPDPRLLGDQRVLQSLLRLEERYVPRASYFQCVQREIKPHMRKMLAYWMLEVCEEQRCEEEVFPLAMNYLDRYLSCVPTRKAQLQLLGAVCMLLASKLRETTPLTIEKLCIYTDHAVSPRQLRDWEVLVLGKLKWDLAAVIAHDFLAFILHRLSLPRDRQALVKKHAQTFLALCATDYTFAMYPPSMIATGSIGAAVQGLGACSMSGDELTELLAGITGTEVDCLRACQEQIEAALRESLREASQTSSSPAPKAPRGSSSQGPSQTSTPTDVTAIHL

By IC50 is commonly meant the midpoint of a concentration-inhibition curve. What is called IC90 is the concentration at which the effect reaches the 90% level. In the case of `COc1ccc(Nc2nc(N)c(C(=O)c3ccccc3I)s2)cc1` [C(12), [4-Amino-2-(4-methoxy-phenylamino)-thiazol-5-yl]-(2-iodo-phenyl)-methanone], the Ki turned out to be 27 nM in assay [1] and 0.67 µM at CDK2/cyclin A. The values for the IC50 with HCT116, in the assay on U2-OS and in the assay with Saos-2 were 2000 nM, 1900 nM and 2100 nM, respectively. Moreover, the IC90 in the assay with HCT116 amounted to 5000 nM; in the assay on U2-OS it was 6000 nM; in the assay with Saos-2, 4800 nM.

For `Cc1ccsc1C(=O)c1sc(Nc2ccc3nc[nH]c3c2)nc1N` [C(19), [4-Amino-2-(1H-benzoimidazol-6-ylamino)-thiazol-5-yl]-(3-methyl-thiophen-2-yl)-methanone], the Ki in assay [1] amounted to 15.8 nM; at CDK2/cyclin A, 0.277 µM. The values for the IC50 with HCT116, in the assay on U2-OS and in the assay on Saos-2 were 9000 nM, 15000 nM and 7000 nM, respectively. The results for the IC90 in the assay with HCT116, in the assay on U2-OS and in the assay with Saos-2 were 23000 nM, more than 25000 nM and 18000 nM, respectively. In addition, in the assay on U2-OS, the “% inhibition of growth in parentheses after >25” value (“% inhibition of growth” below) stood at 77%.

As for `Cc1ccc(C(=O)c2sc(Nc3ccc4nc[nH]c4c3)nc2N)c(C)c1` [C(20), [4-Amino-2-(1H-benzoimidazol-6-ylamino)-thiazol-5-yl]-(2,4-dimethyl-phenyl)-methanone], the Ki was 22 nM in assay [1] and 0.145 µM on CDK2/cyclin A. The IC50 was 6100 nM in the assay on HCT116, 6500 nM in the assay with U2-OS and 4900 nM with Saos-2. The IC90 in the assay on HCT116 was 25000 nM; in the assay with U2-OS, more than 25000 nM; in the assay with Saos-2, 13000 nM. Besides, the “% inhibition of growth” value with U2-OS is listed as “(74%)”.

As to `Cc1ccc(C(=O)c2sc(Nc3cccnc3)nc2N)c(C)c1` [C(21), [4-Amino-2-(pyridin-3-ylamino)-thiazol-5-yl]-(2,4-dimethyl-phenyl)-methanone], the Ki was 117 nM in assay [1] and 0.48 µM on CDK2/cyclin A. Also, the results for the IC50 in the assay with HCT116, in the assay on U2-OS and in the assay on Saos-2 were 9000 nM, 22000 nM and 13000 nM, respectively. The IC90 in the assay on HCT116 was 22000 nM; in the assay on U2-OS, more than 25000 nM; with Saos-2, 23000 nM. In addition, the “% inhibition of growth” value in the assay on U2-OS turned out to be 57%.

Turning to `Cc1ccc(C(=O)c2sc(Nc3ccc(S(N)(=O)=O)cc3)nc2N)c(C)c1` [C(35), 4-[4-Amino-5-(2,4-dimethyl-benzoyl)-thiazol-2-ylamino]-benzenesulfonamide], the results for the Ki (in assay [1]; on CDK2/cyclin A) were 11 nM and 0.023 µM, respectively. Besides, the figures for the IC50 in the assay with HCT116, in the assay with U2-OS and in the assay on Saos-2 were 9000 nM, 12000 nM and 8000 nM, respectively. Also, the IC90 in the assay with HCT116 amounted to 19000 nM; in the assay on U2-OS it was 22000 nM; with Saos-2 it was 20000 nM.

Turning to `Nc1nc(Nc2ccc(S(N)(=O)=O)cc2)sc1C(=O)c1c(Cl)cc(C(F)(F)F)cc1Cl` [C(38), 4-[4-Amino-5-(2,6-dichloro-4-trifluoromethyl-benzoyl)-thiazol-2-ylamino]-benzenesulfonamide], the Ki in assay [1] amounted to 25 nM; on CDK2/cyclin A it was 0.039 µM. Further, the values for the IC50 in the assay with HCT116, in the assay on U2-OS and in the assay with Saos-2 were 4300 nM, 11000 nM and 3000 nM, respectively. The 90% effect concentration (IC90) in the assay with HCT116 is 19000 nM; with U2-OS it was more than 25000 nM; with Saos-2, more than 25000 nM. Also, the “% inhibition of growth” value in the assay with U2-OS turned out to be 87%; in the assay on Saos-2 (concentration not given), 80%.

Consider `Nc1nc(Nc2ccc3nc[nH]c3c2)sc1C(=O)c1c(F)cccc1F` [C(79), [4-Amino-2-(1H-benzoimidazol-6-ylamino)-thiazol-5-yl]-(2,6-difluoro-phenyl)-methanone], for which the results for the Ki (in assay [1]; at CDK2/cyclin A) were 54 nM and 0.162 µM, respectively.

For `Cc1cccc(-c2ccccc2)c1C(=O)c1sc(Nc2ccc(N3CCOCC3)cc2)nc1N` [C(83), [4-Amino-2-(4-morpholin-4-yl-phenylamino)-thiazol-5-yl]-(3-methyl-biphenyl-2-yl)-methanone], the Ki in assay [1] is 1800 nM; on CDK2/cyclin A (μM), 32 µM.

For the molecule `Cc1cccc(Br)c1C(=O)c1sc(Nc2ccc(N3CCOCC3)cc2)nc1N` [C(84), [4-Amino-2-(4-morpholin-4-yl-phenylamino)-thiazol-5-yl]-(2-bromo-6-methyl-phenyl)-methanone], the Ki stood at 53 nM in assay [1] and 1.04 µM on CDK2/cyclin A.

As for `Nc1nc(Nc2ccc3nc[nH]c3c2)sc1C(=O)c1c(Cl)ccc([N+](=O)[O-])c1Cl` [C(89), [4-Amino-2-(1H-benzoimidazol-6-ylamino)-thiazol-5-yl]-(2,6-dichloro-3-nitro-phenyl)-methanone], the Ki in assay [1] was determined as 55 nM; on CDK2/cyclin A, 0.326 µM.

Regarding `Cc1cc(C(=O)c2sc(Nc3ccc(N4CCN(C)CC4)cc3)nc2N)c(C)s1` [C(90), {4-Amino-2-[4-(4-methyl-piperazin-1-yl)-phenylamino]-thiazol-5-yl}-(2,5-dimethyl-thiophen-3-yl)-methanone], the values for the Ki (in assay [1]; on CDK2/cyclin A) were 27 nM and 0.771 µM, respectively.

`Nc1nc(Nc2ccc(S(N)(=O)=O)cc2)sc1C(=O)c1cc(Cl)sc1Cl` [C(92), 4-[4-Amino-5-(2,5-dichloro-thiophene-3-carbonyl)-thiazol-2-ylamino]-benzenesulfonamide]: the Ki amounted to 63 nM in assay [1] and 0.0094 µM at CDK2/cyclin A.

Take `Nc1nc(Nc2ccc3nc[nH]c3c2)sc1C(=O)c1cc(Cl)sc1Cl` [C(93), [4-Amino-2-(1H-benzoimidazol-6-ylamino)-thiazol-5-yl]-(2,5-dichloro-thiophen-3-yl)-methanone]: the Ki in assay [1] came to 285 nM; at CDK2/cyclin A, 1.04 µM.

For the molecule `CN(CC(=O)OC(C)(C)C)c1ccc(Nc2nc(N)c(C(=O)c3c(F)cccc3F)s2)cc1` [C(103), tert-Butyl({4-[4-Amino-5-(2,6-difluoro-benzoyl)-thiazol-2-ylamino]-phenyl}-methyl-amino)-acetate], the Ki was 110 nM in assay [1] and 0.595 µM at CDK2/cyclin A.

Consider `Cc1ccsc1C(=O)c1sc(Nc2ccc(N3CCN(C(=O)OC(C)(C)C)CC3)cc2)nc1N` [C(104), 4-Amino-2-[4-(1-tert-butoxycarbonyl-piperazine-4-yl)-phenylamino]-thiazol-5-yl-(3-methyl-thiophen-2-yl)-methanone], for which the results for the Ki (in assay [1]; on CDK2/cyclin A) were 190 nM and 0.73 µM, respectively.

As for `CC(C)(C)OC(=O)N1CCN(c2ccc(Nc3nc(N)c(C(=O)c4c(Cl)cccc4Cl)s3)cc2)CC1` [C(105), 4-Amino-2-[4-(1-tert-butoxycarbonyl-piperazine-4-yl)-phenylamino]-thiazol-5-yl-(2,6-dichlorophenyl)-methanone], the Ki in assay [1] is 60 nM; on CDK2/cyclin A, 1.06 µM.

Take `CC(=O)Nc1ccc(Cl)c(C(=O)c2sc(Nc3ccc(N4CCN(C(=O)OC(C)(C)C)CC4)cc3)nc2N)c1Cl` [C(106)]: the Ki in assay [1] was 134 nM; on CDK2/cyclin A, 1.46 µM.

Turning to `CC(=O)N1CCN(c2ccc(Nc3nc(N)c(C(=O)c4cc(C)sc4C)s3)cc2)CC1` [C(112), 2-[4-(1-Acetyl-piperazin-4-yl)-phenylamino]-4-amino-thiazol-5-yl-(2,5-dimethyl-thiophen-3-yl)-methanone], the Ki in assay [1] came to 23 nM; on CDK2/cyclin A, 0.408 µM.

Consider `Nc1ccc(Cl)c(C(=O)c2sc(Nc3ccc4nc[nH]c4c3)nc2N)c1Cl` [G, [4-Amino-2-(1H-benzoimidazol-6-ylamino)-thiazol-5-yl]-(3-amino-2,6-dichloro-phenyl)-methanone], for which the Ki in assay [1] was found to be 23 nM; on CDK2/cyclin A it was 0.178 µM.

Take `Cc1ccc(C(=O)c2sc(Nc3ccccc3)nc2N)cc1` [I(12)]: the Ki came to 380 nM in assay [1] and 4.17 µM at CDK2/cyclin A.

As to `Nc1nc(Nc2ccc(C(=O)O)cc2)sc1C(=O)c1c(Cl)cccc1Cl` [I(25)], the Ki was 639 nM in assay [1] and 0.28 µM on CDK2/cyclin A.
